Test results taken from EPA's ToxRefDB 2.

Key:
primate [1] = conditions: Sub-acute repeat dose toxicity, Oral, Gavage/Intubation, dose end: 28 day, group: systemic
rabbit [2] = conditions: Sub-acute repeat dose toxicity; Oral; Gavage/Intubation; dose end: 4 day; group: systemic; systemic / hematology / erythrocyte (rbc) count differential / erythrocyte (rbc) + systemic / hematology / hematocrit (hct) / hematocrit (…
rat [3] = conditions: Sub-acute repeat dose toxicity, Oral, Gavage/Intubation, dose end: 34 day, group: systemic
primate [4] = conditions: Sub-acute repeat dose toxicity; Oral; Gavage/Intubation; dose end: 10 day; group: systemic; systemic / clinical chemistry / [other] / [other] + systemic / clinical chemistry / apolipoprotein a1 / apolipoprotein a1 + systemic / …
rat [5] = conditions: Sub-acute repeat dose toxicity; Oral; Gavage/Intubation; dose end: 10 day; group: systemic; systemic / hematology / erythrocyte (rbc) count differential / erythrocyte (rbc) + systemic / hematology / hematocrit (hct) / hematocrit (…
rat [6] = conditions: Sub-acute repeat dose toxicity, sprague dawley, Oral, Gavage/Intubation, dose end: 14 day, group: systemic
rat [7] = conditions: Sub-acute repeat dose toxicity, sprague dawley, Oral, Gavage/Intubation, dose end: 12 day, group: systemic
rat [8] = conditions: Sub-acute repeat dose toxicity, sprague dawley, Oral, Feed, dose end: 10 day, group: systemic
mouse [9] = conditions: Sub-acute repeat dose toxicity; Oral; Feed; dose end: 10 day; group: systemic; systemic / in life observation / body weight / body weight + systemic / in life observation / food consumption / food consumption
dog [10] = conditions: Sub-acute repeat dose toxicity, beagle, Oral, Gavage/Intubation, dose end: 15 day, group: systemic
rat [11] = conditions: Subchronic oral toxicity in rodents, sprague dawley, Gavage/Intubation, dose end: 91 day, group: systemic
rabbit [12] = conditions: Sub-acute repeat dose toxicity; new zealand white; Oral; Gavage/Intubation; dose end: 4 day; group: systemic; systemic / in life observation / clinical signs / erythema + systemic / in life observation / clinical signs / tachypnea
dog [13] = conditions: Subchronic oral toxicity in nonrodent, beagle, Gavage/Intubation, dose end: 91 day, group: systemic
rat [14] = conditions: Subchronic oral toxicity in rodents, fischer, Feed, dose end: 13 week, group: systemic
mouse [15] = conditions: Subchronic oral toxicity in rodents, b6c3f1, Feed, dose end: 13 week, group: systemic
dog [16] = conditions: Chronic toxicity, beagle, Oral, Feed, dose end: 1 year, group: systemic
mouse [17] = conditions: Carcinogenicity, b6c3f1, Oral, Feed, dose end: 24 month, group: systemic
rat [18] = conditions: Combined chronic toxicity/carcinogenicity; fischer; Oral; Feed; dose end: 2 year; group: systemic; systemic / pathology microscopic / kidney / dilatation + systemic / pathology microscopic / kidney / hyperplasia + systemic / pathology …
rabbit [19] = conditions: Prenatal developmental toxicity study, new zealand white, Oral, Gavage/Intubation, dose end: 28 GD
rat [20] = conditions: Multigenerational reproductive toxicity study, sprague dawley, Oral, Feed, dose end: 2 generation
rat [21] = conditions: Subchronic oral toxicity in rodents, sprague dawley, Feed, dose end: 90 day, group: systemic, systemic / clinical chemistry / cholesterol / cholesterol + systemic / in life observation / body weight / body weight + systemic / in life …
dog [22] = conditions: Subchronic oral toxicity in nonrodent, beagle, Feed, dose end: 103 day, group: systemic
rat [23] = conditions: Prenatal developmental toxicity study, sprague dawley, Oral, Gavage/Intubation, dose end: 15 GD
[24] = systemic / in life observation / clinical signs / pulse/pressure + systemic / clinical chemistry / albumin / albumin + systemic / hematology…
[25] = systemic / in life observation / clinical signs / pulse/pressure + systemic / in life observation / clinical signs / arrhythmia + systemic…
[26] = systemic / clinical chemistry / [other] / [other] + systemic / clinical chemistry / globulins / globulins + systemic / clinical chemistry / …
[27] = systemic / in life observation / body weight / body weight + systemic / clinical chemistry / [other] / [other] + systemic / clinical …
[28] = systemic / pathology microscopic / blood vessel / arteritis + systemic / in life observation / body weight / body weight
[29] = systemic / in life observation / clinical signs / salivation
[30] = systemic / in life observation / clinical signs / salivation + systemic / in life observation / food consumption / food consumption + …
[31] = systemic / in life observation / body weight / body weight + systemic / in life observation / clinical signs / drooping eyelids (ptosis) + …
[32] = systemic / in life observation / body weight / body weight + systemic / in life observation / clinical signs / lacrimation or red-colored …
[33] = systemic / in life observation / clinical signs / arrhythmia + systemic / in life observation / clinical signs / emesis
[34] = systemic / in life observation / clinical signs / arrhythmia + systemic / in life observation / clinical signs / emesis + systemic / in life…
[35] = systemic / organ weight / heart / absolute + systemic / pathology microscopic / thyroid gland / hypertrophy + systemic / in life observation…
[36] = systemic / clinical chemistry / alkaline phosphatase (alp/alk) / alkaline phosphatase (alp/alk) + systemic / clinical chemistry / bilirubin…
[37] = systemic / in life observation / clinical signs / emesis
[38] = systemic / clinical chemistry / alanine aminotransferase (alt/sgpt) / alanine aminotransferase (alt/sgpt) + systemic / clinical chemistry / …
[39] = systemic / organ weight / brain / relative to body weight + systemic / organ weight / kidney / absolute
[40] = systemic / organ weight / brain / relative to body weight + systemic / organ weight / kidney / absolute + systemic / organ weight / kidney…
[41] = systemic / clinical chemistry / alkaline phosphatase (alp/alk) / alkaline phosphatase (alp/alk) + systemic / pathology microscopic / kidney…
[42] = systemic / organ weight / heart / relative to body weight + systemic / organ weight / kidney / absolute + systemic / organ weight / kidney…
[43] = group: developmental, developmental / offspring survival late / lactation index / lactation index + developmental / offspring survival late / viability index / …
[44] = group: maternal, reproductive / offspring survival early / dead fetuses / dead fetuses
[45] = group: offspring, developmental / offspring survival late / viability index / viability index + systemic / in life observation / body weight / offspring (pup…
[46] = group: parental, systemic / in life observation / body weight / body weight gain + systemic / organ weight / liver / relative to body weight
[47] = systemic / clinical chemistry / albumin / albumin + systemic / clinical chemistry / calcium / calcium + systemic / clinical chemistry / …
[48] = group: developmental, developmental / developmental malformation / bone / enlarged fontanel + developmental / developmental malformation / bone / incomplete …
[49] = group: maternal, systemic / in life observation / body weight / body weight gain
[50] = group: maternal, systemic / in life observation / body weight / body weight gain + systemic / in life observation / body weight / body weight + systemic / in…

CC(C)c1nnc2ccc(-c3ocnc3-c3cc(F)ccc3F)cn12
LEL (primate [1]; [24]): 30 mg/kg/day | NEL (primate [1]; [24]): < 30 mg/kg/day | LOAEL (primate [1]; [25]): > 500 mg/kg/day | NOAEL (primate [1]; [25]): ≥ 500 mg/kg/day | LEL (rabbit [2]): 40 mg/kg/day | LOAEL (rabbit [2]): > 80 mg/kg/day | NEL (rabbit [2]): 20 mg/kg/day | NOAEL (rabbit [2]): ≥ 80 mg/kg/day | LEL (rat [3]; [26]): 100 mg/kg/day | NEL (rat [3]; [26]): < 100 mg/kg/day | LOAEL (rat [3]; [27]): > 2000 mg/kg/day | NOAEL (rat [3]; [27]): ≥ 2000 mg/kg/day | LEL (primate [4]): 1000 mg/kg/day | LOAEL (primate [4]): > 1000 mg/kg/day | NEL (primate [4]): 300 mg/kg/day | NOAEL (primate [4]): ≥ 1000 mg/kg/day | LOAEL (rat [5]): > 2000 mg/kg/day | NEL (rat [5]): < 250 mg/kg/day | NOAEL (rat [5]): ≥ 2000 mg/kg/day

CCCOc1ccc(S(=O)(=O)N2CCN(CC)CC2)cc1-c1nc2c(CC)n(Cc3ccccn3)nc2c(=O)[nH]1
NEL (rat [6]; systemic / pathology microscopic / blood vessel / arteritis): 45 mg/kg/day | LEL (rat [6]; [28]): 200 mg/kg/day | LOAEL (rat [6]; [28]): > 200 mg/kg/day | NOAEL (rat [6]; [28]): ≥ 200 mg/kg/day | LEL (rat [7]; [29]): 100 mg/kg/day | NEL (rat [7]; [29]): < 100 mg/kg/day | LOAEL (rat [7]; [30]): > 400 mg/kg/day | NOAEL (rat [7]; [30]): ≥ 400 mg/kg/day | LOAEL (rat [8]; [31]): > 2000 mg/kg/day | NOAEL (rat [8]; [31]): ≥ 2000 mg/kg/day | LEL (rat [8]; [32]): 500 mg/kg/day | NEL (rat [8]; [32]): < 500 mg/kg/day | LEL (mouse [9]): 2000 mg/kg/day | LOAEL (mouse [9]): > 2000 mg/kg/day | NOAEL (mouse [9]): ≥ 2000 mg/kg/day | LEL (dog [10]; [33]): 15 mg/kg/day | NEL (dog [10]; [33]): < 15 mg/kg/day | LOAEL (dog [10]; [34]): > 150 mg/kg/day | NOAEL (dog [10]; [34]): ≥ 150 mg/kg/day | NEL (rat [11]; systemic / organ weight / heart / absolute + systemic / pathology microscopic / thyroid gland / hypertrophy): 25 mg/kg/day | LEL (rat [11]; [35]): 100 mg/kg/day | LOAEL (rat [11]; [35]): > 400 mg/kg/day | NOAEL (rat [11]; [35]): ≥ 400 mg/kg/day | LEL (rabbit [12]): 400 mg/kg/day | LOAEL (rabbit [12]): > 400 mg/kg/day | NEL (rabbit [12]): < 400 mg/kg/day | NOAEL (rabbit [12]): ≥ 400 mg/kg/day | LOAEL (dog [13]; [36]): > 100 mg/kg/day | NOAEL (dog [13]; [36]): ≥ 100 mg/kg/day | LEL (dog [13]; [37]): 10 mg/kg/day | NEL (dog [13]; [37]): < 10 mg/kg/day

Cc1ccn2nc(S(=O)(=O)Nc3c(F)cccc3F)nc2n1 [Flumetsulam]
LOAEL (rat [14]; [38]): 1000 mg/kg/day | NOAEL (rat [14]; [38]): 250 mg/kg/day | NEL (rat [14]; systemic / hematology / erythrocyte (rbc) count differential / erythrocyte (rbc) + systemic / hematology / hemoglobin (hgb) / hemoglobin (…): 2500 mg/kg/day | NEL (mouse [15]; [39]): 1000 mg/kg/day | NOAEL (mouse [15]; [39]): 1000 mg/kg/day | LEL (mouse [15]; [40]): 5000 mg/kg/day | LOAEL (mouse [15]; [40]): 5000 mg/kg/day | LOAEL (dog [16]; [41]): 500 mg/kg/day | NEL (dog [16]; [41]): 20 mg/kg/day | NOAEL (dog [16]; [41]): 100 mg/kg/day | LEL (dog [16]; systemic / organ weight / pituitary gland / relative to body weight): 100 mg/kg/day | NEL (mouse [17]; systemic / organ weight / heart / relative to body weight): 500 mg/kg/day | LEL (mouse [17]; [42]): 1000 mg/kg/day | LOAEL (mouse [17]; [42]): > 1000 mg/kg/day | NOAEL (mouse [17]; [42]): ≥ 1000 mg/kg/day | LEL (rat [18]): 1000 mg/kg/day | LOAEL (rat [18]): 1000 mg/kg/day | NEL (rat [18]): 500 mg/kg/day | NOAEL (rat [18]): 500 mg/kg/day

CCNS(=O)(=O)C(F)(F)C(F)(F)C(F)(F)C(F)(F)C(F)(F)C(F)(F)C(F)(F)C(F)(F)F [Sulfluramid]
LEL (rabbit [19]; [43]): 0.3 mg/kg/day | LOAEL (rabbit [19]; [43]): 0.3 mg/kg/day | NEL (rabbit [19]; [43]): < 0.3 mg/kg/day | NOAEL (rabbit [19]; [43]): < 0.3 mg/kg/day | LEL (rabbit [19]; [44]): 0.3 mg/kg/day | LOAEL (rabbit [19]; [44]): 0.3 mg/kg/day | NEL (rabbit [19]; [44]): < 0.3 mg/kg/day | NOAEL (rabbit [19]; [44]): < 0.3 mg/kg/day | LEL (rat [20]; [45]): 1.34 mg/kg/day | LOAEL (rat [20]; [45]): 1.34 mg/kg/day | NEL (rat [20]; [45]): 0.45 mg/kg/day | NOAEL (rat [20]; [45]): 0.45 mg/kg/day | LEL (rat [20]; [46]): 1.34 mg/kg/day | LOAEL (rat [20]; [46]): 1.34 mg/kg/day | NEL (rat [20]; [46]): 0.45 mg/kg/day | NOAEL (rat [20]; [46]): 0.45 mg/kg/day | LEL (rat [21]): 2.5 mg/kg/day | LOAEL (rat [21]): 2.5 mg/kg/day | NEL (rat [21]): 0.5 mg/kg/day | NOAEL (rat [21]): 0.5 mg/kg/day | LOAEL (dog [22]; [47]): > 23.2 mg/kg/day | NOAEL (dog [22]; [47]): ≥ 23.2 mg/kg/day | LEL (dog [22]; systemic / organ weight / liver / relative to body weight + systemic / clinical chemistry / calcium / calcium): 2.52 mg/kg/day | LEL (rat [23]; [48]): 13.3 mg/kg/day | LOAEL (rat [23]; [48]): 13.3 mg/kg/day | NEL (rat [23]; [48]): 3.3 mg/kg/day | NOAEL (rat [23]; [48]): 3.3 mg/kg/day | LEL (rat [23]; [49]): 3.3 mg/kg/day | LOAEL (rat [23]; [49]): 3.3 mg/kg/day | NEL (rat [23]; [50]): 0.8 mg/kg/day | NOAEL (rat [23]; [50]): 0.8 mg/kg/day
